Data on one compound can be found in US4946668A, “Tumor imaging with technetium labelled glucarate” (Centocor, Inc., priority 1988, dated 1990).

For this data set, the system named is colorectal carcinoma (HT-29 cells). Kind of data set: Detection of colorectal carcinoma (HT-29 xenograft): scintigraphic imaging and uptake of radioactivity. It counts as in vivo, female athymic nude mice. On the procedure:
Colorectal carcinoma was produced in female athymic nude mice by injecting subcutaneously 1×10^7 HT-29 cells (M.D. Anderson Hospital and Tumor Institute Houston, Tex.) per mouse in the hind limb. After 4 weeks, tumor bearing mice (2 per group) were injected intravenously with either sodium per-technetate (TcO4^-) or Tc-99m-glucarate (approximately350 uCi/mouse). […] After imaging at the last time point, animals were killed, tumors and organs were weighed and quantitated for the distribution of radioactivity.

[1] abbreviates: 22 hours, approximately 350 uCi/mouse i.v.

With `[Na+].[O]=[Tc](=[O])(=[O])[O-]` [TcO4^-, sodium pertechnetate], under setting [1], the “% ID/gm at tumor site” value turned out to be 0.29 ± 0.00 % ID/gm, the tumor/blood is listed as 2.08 ± 0.21 and the tumor/muscle stood at 12.08 ± 3.41. The tumor visualization entry (images at 3, 5 and 24 hours) is listed as “no tumor visualization was detected”. Moreover, for the setting “images at 3, 5 and 24 hours after injection”, the “uptake of radioactivity seen in scintigraphic images” value was “nonspecific uptake of radioactivity at the thyroid and stomach”.
